Results taken from PMC7835349 (Communications Biology, 2021).
Several values for one entry are separate records, joined by “and”; a condition that tells them apart may be missing. Equal values may be shown once.

Test system: telemetered dogs
Assay: Conscious dog telemetry (QRS amplitude and other cardiovascular parameters, tolerability)
Details: dog, 0.2 mg/kg 0.5h infusion, 0.2 mg/kg

CN(CCO)CCC(CSc1ccccc1)Nc1ccc(S(=O)(=O)NC(=O)c2ccc(N3CCC(C(O)c4ccccc4-c4ccc(Cl)cc4)CC3)cc2)cc1S(=O)(=O)C(F)(F)F (centres unmarked) [AZD4320]
Systolic blood pressure (mmHg) (0.5 h): 175 mmHg and 149 mmHg and 155 mmHg and 165 mmHg | ECG PR interval (0.75 h): 113 ms and 82 ms and 85 ms and 87 ms | ECG QRS duration (0.75 h): 49 ms and 37 ms and 40 ms | Left ventricular -dP/dt (mmHg/s) (0.75 h): 3504 mmHg/s and 3607 mmHg/s and 3634 mmHg/s and 4976 mmHg/s | QRS amplitude (% baseline) (0.75 h): 94 % baseline and 91 % baseline and 92 % baseline | Systolic blood pressure (mmHg) (0.75 h): 163 mmHg and 153 mmHg and 156 mmHg and 164 mmHg | ECG PR interval (1 h): 116 ms and 88 ms and 93 ms | ECG QRS duration (1 h): 47 ms and 38 ms and 40 ms and 37 ms | Left ventricular -dP/dt (mmHg/s) (1 h): 3285 mmHg/s and 3388 mmHg/s and 2965 mmHg/s and 4801 mmHg/s | QRS amplitude (% baseline) (1 h): 88 % baseline and 90 % baseline and 92 % baseline and 95 % baseline | Systolic blood pressure (mmHg) (1 h): 150 mmHg and 144 mmHg and 138 mmHg and 159 mmHg | ECG PR interval (1.5 h): 119 ms and 95 ms and 104 ms and 88 ms | ECG QRS duration (1.5 h): 49 ms and 38 ms and 40 ms and 37 ms | Left ventricular -dP/dt (mmHg/s) (1.5 h): 3080 mmHg/s and 3480 mmHg/s and 2336 mmHg/s and 4643 mmHg/s | QRS amplitude (% baseline) (1.5 h): 83 % baseline and 97 % baseline and 84 % baseline and 99 % baseline | Systolic blood pressure (mmHg) (1.5 h): 135 mmHg and 152 mmHg and 130 mmHg and 156 mmHg | ECG PR interval (2 h): 110 ms and 85 ms and 101 ms and 91 ms | ECG QRS duration (2 h): 47 ms and 37 ms and 40 ms | QRS amplitude (% baseline) (2 h): 86 % baseline and 90 % baseline and 91 % baseline and 95 % baseline | Systolic blood pressure (mmHg) (2 h): 167 mmHg and 155 mmHg and 129 mmHg and 164 mmHg | ECG PR interval (3 h): 115 ms and 98 ms and 96 ms and 89 ms | ECG QRS duration (3 h): 48 ms and 37 ms and 39 ms and 36 ms | Left ventricular -dP/dt (mmHg/s) (3 h): 3439 mmHg/s and 3333 mmHg/s and 2944 mmHg/s and 5068 mmHg/s | QRS amplitude (% baseline) (3 h): 121 % baseline and 94 % baseline and 76 % baseline and 88 % baseline | Systolic blood pressure (mmHg) (3 h): 164 mmHg and 159 mmHg and 145 mmHg and 170 mmHg | ECG PR interval (4 h): 106 ms and 97 ms and 92 ms and 91 ms | ECG QRS duration (4 h): 46 ms and 36 ms and 39 ms | Left ventricular -dP/dt (mmHg/s) (4 h): 3609 mmHg/s and 3205 mmHg/s and 2963 mmHg/s and 4495 mmHg/s | QRS amplitude (% baseline) (4 h): 97 % baseline and 82 % baseline and 80 % baseline and 89 % baseline | Systolic blood pressure (mmHg) (4 h): 153 mmHg and 136 mmHg and 139 mmHg and 152 mmHg | ECG PR interval (6 h): 96 ms and 86 ms and 89 ms and 67 ms | ECG QRS duration (6 h): 48 ms and 37 ms and 39 ms | Left ventricular -dP/dt (mmHg/s) (6 h): 2830 mmHg/s and 3356 mmHg/s and 3220 mmHg/s and 3767 mmHg/s | QRS amplitude (% baseline) (6 h): 108 % baseline and 84 % baseline and 81 % baseline and 102 % baseline | Systolic blood pressure (mmHg) (6 h): 147 mmHg and 145 mmHg and 158 mmHg | ECG PR interval (8 h): 98 ms and 88 ms and 86 ms and 73 ms | ECG QRS duration (8 h): 48 ms and 37 ms and 39 ms | Left ventricular -dP/dt (mmHg/s) (8 h): 3465 mmHg/s and 3133 mmHg/s and 2471 mmHg/s and 4567 mmHg/s | QRS amplitude (% baseline) (8 h): 100 % baseline and 88 % baseline and 97 % baseline and 93 % baseline | Systolic blood pressure (mmHg) (8 h): 144 mmHg and 140 mmHg and 137 mmHg and 142 mmHg | ECG PR interval (12 h): 101 ms and 87 ms and 98 ms and 66 ms | ECG QRS duration (12 h): 49 ms and 38 ms and 40 ms and 37 ms | Left ventricular -dP/dt (mmHg/s) (12 h): 3004 mmHg/s and 2664 mmHg/s and 2608 mmHg/s and 4493 mmHg/s | QRS amplitude (% baseline) (12 h): 121 % baseline and 90 % baseline and 84 % baseline | Systolic blood pressure (mmHg) (12 h): 133 mmHg and 131 mmHg and 134 mmHg and 165 mmHg | ECG PR interval (16 h): 108 ms and 95 ms and 94 ms and 77 ms | ECG QRS duration (16 h): 47 ms and 37 ms and 40 ms | Left ventricular -dP/dt (mmHg/s) (16 h): 2948 mmHg/s and 3176 mmHg/s and 2965 mmHg/s and 4367 mmHg/s | QRS amplitude (% baseline) (16 h): 91 % baseline and 93 % baseline and 81 % baseline and 101 % baseline | Systolic blood pressure (mmHg) (16 h): 151 mmHg and 132 mmHg and 146 mmHg and 164 mmHg | ECG PR interval (22 h): 115 ms and 93 ms and 97 ms and 80 ms | ECG QRS duration (22 h): 48 ms and 38 ms and 39 ms | Left ventricular -dP/dt (mmHg/s) (22 h): 3689 mmHg/s and 2854 mmHg/s and 2653 mmHg/s and 4540 mmHg/s
